Source: patent US20170296550A1, “ARYL SULTAM DERIVATIVES AS RORc MODULATORS” (Genentech, Inc., priority 2013, published 2017)

Target: T1, RORc (Homo sapiens, UniProt P51449)
T1 construct: host or cells: E. coli
T1 sequence (P51449 269-508 limits assumed): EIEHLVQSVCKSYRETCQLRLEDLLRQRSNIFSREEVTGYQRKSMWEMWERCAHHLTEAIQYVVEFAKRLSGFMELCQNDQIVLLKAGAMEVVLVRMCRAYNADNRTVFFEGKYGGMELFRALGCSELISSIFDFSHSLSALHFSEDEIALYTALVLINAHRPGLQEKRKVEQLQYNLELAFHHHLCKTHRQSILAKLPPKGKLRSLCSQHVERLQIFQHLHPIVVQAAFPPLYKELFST
Assay: In Vitro RORc Ligand Binding Assay (25-[3H]hydroxycholesterol radioligand, filter plate)
Conditions: RORc ligand binding domain 0.6 ug/mL; 6 nM 25-[3H]hydroxycholesterol; 3 h at 25° C.
Procedure: Example 68 In Vitro RORc Ligand Binding Assay
This assay was used to determine a compound's potency in inhibiting activity of RORc by determining, Kiapp, IC50, or percent inhibition values.
On day of the assay, 100 uL of 0.05% CHAPS (in deionized H2O) was added to all wells of the GFB Unifilter plate and allowed soak for 1 h. A wash buffer of 50 mM HEPES (pH 7.4), 150 mM NaCl, and 5 mM MgCl2 was prepared to wash the filter plate. To prepare an assay buffer, BSA was added to the wash buffer to reach 0.01% and DTT was added to reach 1 mM.
For IC50 mode, 10 mM compound stocks were serially diluted in DMSO with DMSO to give 20× required final concentration in DMSO (15 uL compound+30 uL DMSO). The 20× compound stocks were diluted in DMSO with Assay Buffer 4-fold to reach 5× the final test concentration in 25% DMSO (10 uL compound+30 uL Assay Buffer). Solutions were mixed by aspiration several times with a pipette set on 50 uL volume. For the assay, 10 uL of 5× compound stock solutions in 25% DMSO were added to the assay plate in duplicate.
For two point screening, 10 mM stock compound solutions were diluted in DMSO to obtain 200 uM (20× the high test concentration) and then diluted 10-fold further to reach 20 uM (20× the low test concentration). The 20× stocks were diluted 4-fold with Assay Buffer (10 uL compound+30 uL Assay Buffer) to reach 5× the test concentrations (50 uM and 5 uM) and 10 uL were added to two assay plates for the duplicate wells. With each concentration tested on 2 plates, each set of 80 compounds used 4 assay plates (1 uM and 10 uM, with n=2).
25-hydroxycholesterol (1 uM) was used to determine the level of NSB signal is prepared in DMSO as for compounds above, then diluted in Assay Buffer to give a final concentration of 5 uM. For 25-hydroxycholesterol in 25% DMSO/75% Assay Buffer; 10 uL per well was used for NSB samples. Wells for Total Binding and No Receptor sample determination contained 10 uL of 25% DMSO/75% Assay Buffer per well.
Radioligand (25-[^3H]hydroxycholesterol) Preparation
25-[^3H]hydroxycholesterol was dilute in Assay Buffer to obtain 15 nM and vortex to mix. Add 20 uL to all wells to reach 6 nM final in the assay.
Stock receptor solution was diluted in assay buffer to obtain 1.5 ug/mL in Assay Buffer. 20 uL was added to all wells. For No R samples, 20 uL Assay Buffer was substituted for receptor solution.
Assay plates were 96-well polypropylene V-bottom plates. 10 uL of 5× compound in 25% DMSO/75% Assay Buffer was added to Test wells. 10 uL of 25% DMSO/75% Assay Buffer was added to Total Binding or No Receptor wells. 10 uL of 5 uM 25-hydroxycholesterol in 25% DMSO/75% Assay Buffer was added to NSB wells. 20 uL of 15 nM 25-[^3H]hydroxycholesterol prepared in Assay Buffer was added to all wells. 20 uL of 1.5 ug/mL RORc receptor was added to wells (or […] Assay Buffer to No R wells). Following addition to the wells, the plates were incubated 3 h at 25° C.
Using a Packard Filtermate Harvester, the filter plate were washed 4 times following transfer of the incubated samples. Plates were dry-filtered completely (2 h at 50° C. or overnight at room temperature). 50 uL Microscint 0 was added to all wells and read on Topcount protocol Inverted.
Final concentrations were as follows: 50 mM HEPES buffer (pH 7.4); 150 mM NaCl; 1 mM DTT; 5 mM MgCl2; 0.01% BSA; 5% DMSO; 0.6 ug/mL RORc receptor; 6 nM 25-[^3H]hydroxycholesterol. For NSB wells, 1 uM 25-hydroxycholesterol was also present.

IC50 | Compound
212 nM | C[C@H]1CCC(c2ccccc2)S(=O)(=O)N1Cc1ccc(-c2cccc(S(C)(=O)=O)c2)cc1F (stereo partly drawn) [Example 23, (3S)-2-(3-Fluoro-3′-methanesulfonyl-biphenyl-4-ylmethyl)-3-methyl-6-phenyl-[1,2]thiazinane 1,1-dioxide]
1600 nM | CNC(=O)c1ccc(-c2ccc(CN3[C@@H](C)CCC(c4ccccc4)S3(=O)=O)c(F)c2)cn1 (stereo partly drawn) [Example 36, 5-[3-Fluoro-4-((3S)-3-methyl-1,1-dioxo-6-phenyl-[1,2]thiazinan-2-ylmethyl)-phenyl]-pyridine-2-carboxylic acid methylamide]
87 nM | C[C@H]1CCC(c2ccccc2)S(=O)(=O)N1Cc1ccc(-c2ccc(S(C)(=O)=O)cn2)cc1F (stereo partly drawn) [Example 38, (3S)-2-[2-Fluoro-4-(5-methanesulfonyl-pyridin-2-yl)-benzyl]-3-methyl-6-phenyl-[1,2]thiazinane 1,1-dioxide]
153 nM | Cc1cccnc1COc1ccc(CN2[C@@H](C)CCC(c3ccccc3)S2(=O)=O)cc1 (stereo partly drawn) [Example 46, (3S)-3-Methyl-2-[4-(3-methyl-pyridin-2-ylmethoxy)-benzyl]-6-phenyl-[1,2]thiazinane 1,1-dioxide]
205 nM | Cc1cnccc1COc1ccc(CN2[C@@H](C)CCC(c3ccccc3)S2(=O)=O)cc1 (stereo partly drawn) [Example 47, (3S)-3-Methyl-2-[4-(3-methyl-pyridin-4-ylmethoxy)-benzyl]-6-phenyl-[1,2]thiazinane 1,1-dioxide]
295 nM | C[C@H]1CCC(c2ccccc2)S(=O)(=O)N1Cc1ccc(OCc2cncn2C)cc1 (stereo partly drawn) [Example 49, (3S)-3-Methyl-2-[4-(3-methyl-3H-imidazol-4-ylmethoxy)-benzyl]-6-phenyl-[1,2]thiazinane 1,1-dioxide]
1180 nM | Cc1cnc(COc2ccc(CN3[C@@H](C)CCC(c4ccccc4)S3(=O)=O)cc2)nc1 (stereo partly drawn) [Example 51, (3S)-3-Methyl-2-[4-(5-methyl-pyrimidin-2-ylmethoxy)-benzyl]-6-phenyl-[1,2]thiazinane 1,1-dioxide]
57 nM | Cc1ncccc1COc1ccc(CN2[C@@H](C)CCC(c3ccccc3)S2(=O)=O)cc1 (stereo partly drawn) [Example 52, (3S)-3-Methyl-2-[4-(2-methyl-pyridin-3-ylmethoxy)-benzyl)-6-phenyl-[1,2]thiazinane 1,1-dioxide]
208 nM | Cc1oncc1COc1ccc(CN2[C@@H](C)CCC(c3ccccc3)S2(=O)=O)cc1 (stereo partly drawn) [Example 53, (3S)-3-Methyl-2-[4-(5-methyl-isoxazol-4-ylmethoxy)-benzyl]-6-phenyl-[1,2]thiazinane 1,1-dioxide]
387 nM | Cc1cc(COc2ccc(CN3[C@@H](C)CCC(c4ccccc4)S3(=O)=O)cc2)n(C)n1 (stereo partly drawn) [Example 55, (3S)-2-[4-(2,5-Dimethyl-2H-pyrazol-3-ylmethoxy)-benzyl]-3-methyl-6-phenyl-[1,2]thiazinane 1,1-dioxide]

Further lines, the compound ahead of its results:

Compound | IC50
C[C@H]1CCC(c2ccccc2)S(=O)(=O)N1Cc1ccc(-c2ccc(C#N)nc2)cc1F (stereo partly drawn) [Example 24, 5-[3-Fluoro-4-((3S)-3-methyl-1,1-dioxo-6-phenyl-[1,2]thiazinan-2-ylmethyl)-phenyl]-pyridine-2-carbonitrilc] | 110 nM
CC(=O)Nc1ccc(-c2ccc(CN3[C@@H](C)CCC(c4ccccc4)S3(=O)=O)c(F)c2)cn1 (stereo partly drawn) [Example 26, N-{5-[3-Fluoro-4-((3S)-3-methyl-1,1-dioxo-6-phenyl-[1,2]thiazinan-2-ylmethyl)-phcnyl]-pyridin-2-yl}-acetamide] | 1910 nM
C[C@H]1CCC(c2ccccc2)S(=O)(=O)N1Cc1ccc(-c2ccc(C#N)cc2)cc1F (stereo partly drawn) [Example 27, 3′-Fluoro-4′-((3S)-3-methyl-1,1-dioxo-6-phenyl-[1,2]thiazinan-2-ylmethyl)-biphenyl-4-carbonitrile] | 102 nM
C[C@H]1CCC(c2ccccc2)S(=O)(=O)N1Cc1ccc(-c2ccc(C(N)=O)cc2)cc1F (stereo partly drawn) [Example 28, 3′-Fluoro-4′-((3S)-3-methyl-1,1-dioxo-6-phenyl-[1,2]thiazinan-2-ylmethyl)-biphenyl-4-carboxylic acid amide] | 37 nM
C[C@H]1CCC(c2ccccc2)S(=O)(=O)N1Cc1ccc(-c2cnn(C)c2)cc1F (stereo partly drawn) [Example 29, (3S)-2-[2-Fluoro-4-(1-methyl-1H-pyrazol-4-yl)-benzyl]-3-methyl-6-phenyl-[1,2]thiazinane 1,1-dioxide] | 727 nM
C[C@H]1CCC(c2ccccc2)S(=O)(=O)N1Cc1ccc(-c2ccc(S(C)(=O)=O)cc2)cc1F (stereo partly drawn) [Example 31, (3S)-2-(3-Fluoro-4′-methanesulfonyl-biphenyl-4-ylmethyl)-3-methyl-6-phenyl-[1,2]thiazinane 1,1-dioxide] | 28 nM
C[C@H]1CCC(c2ccccc2)S(=O)(=O)N1Cc1ccc(-c2ccccc2)cc1F (stereo partly drawn) [Example 32, (3S)-2-(3-Fluoro-biphenyl-4-ylmethyl)-3-methyl-6-phenyl-[1,2]thiazinane 1,1-dioxide] | 161 nM
C[C@H]1CCC(c2ccccc2)S(=O)(=O)N1Cc1ccc(-c2ccc(NS(C)(=O)=O)cc2)cc1F (stereo partly drawn) [Example 33, N-[3′-Fluoro-4′-((3S)-3-methyl-1,1-dioxo-6-phenyl-[1,2]thiazinan-2-ylmethyl)-biphenyl-4-yl]-methanesulfonamide] | 44 nM
C[C@H]1CCC(c2ccccc2)S(=O)(=O)N1Cc1ccc(-c2ccncc2)cc1F (stereo partly drawn) [Example 34, (3S)-2-(2-Fluoro-4-pyridin-4-yl-benzyl)-3-methyl-6-phenyl-[1,2]thiazinane 1,1-dioxide] | 463 nM
Cc1noc(C)c1-c1ccc(CN2[C@@H](C)CCC(c3ccccc3)S2(=O)=O)c(F)c1 (stereo partly drawn) [Example 35, (3S)-2-[4-(3,5-Dimethyl-isoxazol-4-yl)-2-fluoro-benzyl]-3-methyl-6-phenyl-[1,2]thiazinane 1,1-dioxide] | 534 nM
C[C@H]1CCC(c2ccccc2)S(=O)(=O)N1Cc1ccc(-c2ccc(S(C)(=O)=O)nc2)cc1F (stereo partly drawn) [Example 39, (3S)-2-[2-Fluoro-4-(6-methanesulfonyl-pyridin-3-yl)-benzyl]-3-methyl-6-phenyl-[1,2]thiazinanc 1,1-dioxide] | 151 nM
C[C@H]1CCC(c2ccccc2)S(=O)(=O)N1Cc1ccc(-c2cnc(S(C)(=O)=O)nc2)cc1F (stereo partly drawn) [Example 40, (3S)-2-[2-Fluoro-4-(2-mcthanesulfonyl-pyrimidin-5-yl)-benzyl]-3-methyl-6-phenyl-[1,2]thiazinane 1,1-dioxide] | 989 nM
C[C@H]1CCC(c2ccccc2)S(=O)(=O)N1Cc1ccc(OCc2ncccn2)cc1 (stereo partly drawn) [Example 48, (3S)-3-Methyl-6-phenyl-2-[4-(pyrimidin-2-ylmethoxy)-benzyl]-[1,2]thiazinane 1,1-dioxide] | 1630 nM
Cc1cc(COc2ccc(CN3[C@@H](C)CCC(c4ccccc4)S3(=O)=O)cc2)cc(C)n1 (stereo partly drawn) [Example 54, (3S)-2-[4-(2,6-Dimethyl-pyridin-4-ylmethoxy)-benzyl]-3-methyl-6-phenyl-[1,2]thiazinane 1,1-dioxide] | 295 nM
C[C@H]1CCC(c2ccccc2)S(=O)(=O)N1Cc1ccc(OCCn2ccnc2)cc1 (stereo partly drawn) [Example 56, (3S)-2-[4-(2-Imidazol-1-yl-ethoxy)-benzyl]-3-methyl-6-phenyl-[1,2]thiazinane 1,1-dioxide] | 316 nM
